Values of other authors, collected in patent US20210161950A1, “Veterinary Supplement for Effecting Bone and Cartilage” (priority 2017, published 2021).

Tests used:
osteoarthritis = details: meta-analysis
[1] = system: degenerated cartilage of the mandibular joint; details: oral strontium

In the case of `N[C@H]1C(O)O[C@H](CO)[C@@H](O)[C@@H]1O.O=S(=O)(O)O` (stereo partly drawn) [glucosamine sulfate], the “connective tissue surrounding bones” value (bone fractures in rats; rats, after 4 weeks of 230 milligrams glucosamine sulfate daily) is given as “more cellular and vascular” and the “strength of newly formed, previously fractured bones” value (bone fractures in rats; rats, after 4 weeks of 230 milligrams glucosamine sulfate daily, compared to controls) is given as “stronger compared to controls”.

For `N[C@H]1C(O)O[C@H](CO)[C@@H](O)[C@@H]1O` (stereo partly drawn) [glucosamine], the mobility of joints (osteoarthritis) is given as “Improves mobility of joints”, the osteoarthritis progression (osteoarthritis) is given as “Reduces osteoarthritis progression” and the pain (osteoarthritis) is given as “Reduces pain”. The “risk of total joint replacement” value (osteoarthritis) was “Reduces risk of total joint replacement”, the “new bone formation and osteoblast lining” value (bone fractures in rats; glucosamine-treated rats compared to control groups) was “significantly higher” and the “healing time of bone fractures” value (bone fractures in rats; rats) was “helped accelerate the healing time”.

For `[Sr+2]` [strontium], the “cartilage thickness and cell density” value [1] is listed as “increased cartilage thickness and cell density”, the “expression of cartilage catabolic factors and pro-inflammatory cytokines” value [1] is listed as “decreased expression” and the “expression of cartilage matrix molecules such as Collagen II and aggrecan” value [1] is listed as “increased expression”. The “subchondral bone loss and mandibular condylar cartilage degradation” value [1] was “reversed”.
